The source of these data is ChEMBL document CHEMBL1201862, “PubChem BioAssay data set” (2004).

Among the test systems are EKVX; HCT-15; HL-60; HOP-62; HOP-92; HT-29; KM12; LOX IMVI; MDA-N; NCI-H23; NCI-H460; NCI-H522; OVCAR-8; SK-MEL-28; SK-OV-3; SN12C; SR; SW-620; T47D; U-251.
Common to all, as to assay: NCI anticancer screen, dose series, 48 h

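Step 1: Grow cells in 96-well plates. Step 2: Expose to compound for 48 hours at 5 concentrations. Step 3: Interpolate endpoints linearly; if unreached, use highest concentration. GI50 = concentration required for 50% inhibition of growth.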 Calls of active or inactive are those of the source. No stated cut-off is given here; in the data, active = GI50 up to about 1.1 µM and inactive = higher.

Consider `O=C(O)c1ccc(C(=O)c2ccccc2)c(C(=O)O)c1`, for which the GI50 in the test with EKVX is > 100 µM (inactive); with HCT-15 it was over 100 µM; in the test on HL-60, > 100 µM (inactive); in the test on HOP-62 it was > 100 µM (inactive); in the test with HOP-92 it was > 100 µM (inactive); in the test on HT-29, > 100 µM (inactive). Also, the GI50 in the test on KM12, in the test on LOX IMVI, with MDA-N, in the test on NCI-H23, with NCI-H460 and in the test with NCI-H522 was > 100 µM (inactive) each time. For the same compound, the GI50 in the test with OVCAR-8, in the test with SK-MEL-28, in the test on SK-OV-3, with SN12C, in the test on SR and in the test on SW-620 was > 100 µM (inactive) in each case. For the same compound, the GI50 in the test with T47D and in the test on U-251 was > 100 µM (inactive) in each case.
Turning to `Cc1ccccc1/N=N/c1ccc(N/N=C2/CCCNC2=O)c(C)c1`, the GI50 is 88.5 µM (inactive) in the test with EKVX; over 100 µM in the test on HCT-15; 8.55 µM (inactive) in the test with HL-60; > 100 µM (inactive) in the test with HOP-62; > 100 µM (inactive) in the test with HOP-92; > 100 µM (inactive) in the test on HT-29. Moreover, the GI50 with KM12 was > 100 µM (inactive); in the test on LOX IMVI, > 100 µM (inactive); in the test on MDA-N, > 100 µM (inactive); with NCI-H23, > 100 µM (inactive); with NCI-H460 it was > 100 µM (inactive); in the test on NCI-H522, 31.2 µM (inactive). Besides, the GI50 was > 100 µM (inactive) in the test with SK-MEL-28; > 100 µM (inactive) with SK-OV-3; > 100 µM (inactive) with SN12C; 36.1 µM (inactive) in the test with SR; > 100 µM (inactive) in the test on SW-620; 33 µM (inactive) in the test with T47D. Moreover, the GI50 in the test on U-251 is > 100 µM (inactive).
Consider `OCCCCCCCCCCCOc1ccc(C2OCC3(CC=CCC3)CO2)cc1` (stereo unspecified), for which the GI50 was 10.6 µM (inactive) with EKVX; 15.2 µM with HCT-15; 7.29 µM (inactive) in the test with HL-60; 14.4 µM (inactive) in the test on HOP-62; 16.9 µM (inactive) with HOP-92; 3.85 µM (inactive) in the test on HT-29. Moreover, the GI50 with KM12 is 13 µM (inactive); with LOX IMVI, 11.7 µM (inactive); in the test with MDA-N, 15.9 µM (inactive); in the test with NCI-H23, 16.4 µM (inactive); with NCI-H460 it was 16.9 µM (inactive); with NCI-H522, 5.08 µM (inactive). The GI50 with OVCAR-8 is 17.2 µM (inactive); with SK-MEL-28 it was 16.9 µM (inactive); with SK-OV-3 it was 19.3 µM (inactive); in the test on SN12C, 15 µM (inactive); in the test on SR, 0.43 µM (active); in the test with SW-620, 16 µM (inactive). Besides, the GI50 in the test with T47D was 13.3 µM (inactive); with U-251 it was 13.9 µM (inactive).
Turning to `CC(C)(C)OC(=O)n1cc(C2CNC(=O)C23CCC(=O)N3Cc2ccccc2)c2ccccc21` (stereo unspecified), the GI50 in the test with EKVX is 22.4 µM (inactive); in the test with HL-60 it was 28.1 µM (inactive); in the test on HOP-62, 24.8 µM (inactive); in the test with HOP-92, 10.9 µM (inactive); with HT-29, 19.1 µM (inactive); in the test with KM12 it was 25.5 µM (inactive). Moreover, the GI50 in the test on LOX IMVI is 19.8 µM (inactive); in the test with MDA-N, 28.2 µM (inactive); with NCI-H23, 23.2 µM (inactive); in the test on NCI-H460, 20.7 µM (inactive); in the test on NCI-H522, 17.8 µM (inactive); in the test with SK-OV-3, 26.2 µM (inactive). Besides, the GI50 is 16.7 µM (inactive) in the test with SN12C; 32.4 µM (inactive) in the test on SR; 33.5 µM (inactive) in the test on SW-620; 26 µM (inactive) in the test with T47D; 18.7 µM (inactive) in the test with U-251.
As for `C=C(C)C(CC=C(C)C)CC12CC(CC=C(C)C)C(C)(C)C(CC=C(C)C)(C(=O)C(Cc3ccc(O)c(O)c3)=C1O)C2=O` (stereo unspecified), the GI50 in the test on EKVX is > 100 µM (inactive); in the test on HCT-15 it was over 100 µM; with HL-60, > 100 µM (inactive); in the test with HOP-62, > 100 µM (inactive); in the test with HOP-92, > 100 µM (inactive); in the test on HT-29 it was > 100 µM (inactive). Further, the GI50 in the test with KM12, in the test with LOX IMVI, in the test with MDA-N, in the test with NCI-H23, with NCI-H460 and in the test with NCI-H522 was > 100 µM (inactive) throughout. Moreover, the GI50 in the test on OVCAR-8, in the test with SK-MEL-28, with SK-OV-3, with SR, in the test on SW-620 and in the test with T47D was > 100 µM (inactive) in each case. Also, in the test with U-251, the GI50 was > 100 µM (inactive).
As to `Nc1cc2c3c(cccc3c1)NC2=O`, the GI50 was 20.9 µM (inactive) in the test on EKVX; over 100 µM in the test on HCT-15; > 100 µM (inactive) in the test on HL-60; 22.1 µM (inactive) in the test with HOP-62; > 100 µM (inactive) with HOP-92; > 100 µM (inactive) in the test with HT-29. In addition, the GI50 in the test with KM12 is > 100 µM (inactive); in the test on LOX IMVI it was 51.4 µM (inactive); in the test with MDA-N it was 68.7 µM (inactive); in the test with NCI-H23, 79.8 µM (inactive); in the test on NCI-H460 it was 8.39 µM (inactive); with NCI-H522 it was 3.64 µM (inactive). The GI50 in the test on OVCAR-8 was > 100 µM (inactive); in the test on SK-MEL-28, > 100 µM (inactive); in the test with SK-OV-3, 94 µM (inactive); with SN12C, 95.1 µM (inactive); in the test with SR, > 100 µM (inactive); in the test with SW-620 it was 82.4 µM (inactive). Besides, the values for the GI50 in the test with T47D and with U-251 were 28 µM (inactive) and 31.8 µM (inactive), respectively.
For `C/C(=N\NC(=S)Nc1ccc([N+](=O)[O-])cc1)c1nc2cccnc2[nH]1`, the GI50 is 0.227 µM (active) in the test on EKVX; 0.617 µM in the test on HCT-15; 0.652 µM (active) with HL-60; 1.07 µM (active) in the test with HOP-62; 1.51 µM (inactive) in the test on HOP-92; 0.615 µM (active) in the test with HT-29. Also, the GI50 with KM12 was 0.873 µM (active); with LOX IMVI, 0.442 µM (active); in the test on MDA-N it was 1.78 µM (inactive); in the test on NCI-H23, 0.713 µM (active); with NCI-H460, 0.379 µM (active); in the test on NCI-H522, 1.06 µM (active). The GI50 was 0.348 µM (active) with OVCAR-8; 0.698 µM (active) in the test with SK-MEL-28; 1.16 µM (inactive) with SK-OV-3; 1.65 µM (inactive) in the test with SN12C; 0.388 µM (active) in the test on SR; 0.906 µM (active) in the test on SW-620. For the same compound, the GI50 in the test with T47D is 0.693 µM (active); with U-251, 0.251 µM (active).
For `CC(=O)c1ccc(/N=N/N2CCCC2)cc1`, the GI50 in the test with EKVX was > 100 µM (inactive); in the test on HCT-15, over 100 µM; in the test on HL-60 it was 29.5 µM (inactive); in the test with HOP-62, > 100 µM (inactive); in the test on HOP-92 it was > 100 µM (inactive); with KM12, > 100 µM (inactive). The GI50 with LOX IMVI, in the test on MDA-N, with NCI-H23, in the test on NCI-H460, in the test with NCI-H522 and with OVCAR-8 was > 100 µM (inactive) throughout. The GI50 in the test with SK-OV-3, in the test with SN12C, in the test with SR, with SW-620, in the test on T47D and with U-251 was > 100 µM (inactive) in each case.
For `O=C(O)CCC(NC(=O)c1ccc(CNc2nc3cc(C(F)(F)F)ccc3nc2C(=O)O)cc1)C(=O)O` (stereo unspecified), the GI50 with EKVX was > 100 µM (inactive); with HCT-15, over 100 µM; with HL-60 it was > 100 µM (inactive); with HOP-62 it was > 100 µM (inactive); in the test with HOP-92 it was > 100 µM (inactive); in the test with HT-29, > 100 µM (inactive). Further, the GI50 in the test with KM12, in the test on LOX IMVI, in the test on MDA-N, with NCI-H23, in the test with NCI-H460 and in the test with NCI-H522 was > 100 µM (inactive) each time. Also, the GI50 in the test on OVCAR-8, in the test on SK-MEL-28, with SK-OV-3, with SR, in the test on SW-620 and with T47D was > 100 µM (inactive) throughout. Besides, in the test on U-251, the GI50 is > 100 µM (inactive).
Consider `C=C1C(O)C[C@H](OC(C)=O)[C@]2(C)C1C(OC(C)=O)[C@]1(C(C)(C)O)CC(O)C(C)=C1[C@@H](OC(=O)c1ccccc1)C2OC(C)=O` (stereo partly specified), for which the GI50 is > 10 µM (inactive) in the test with EKVX; over 10 µM in the test with HCT-15; > 10 µM (inactive) with HL-60; > 10 µM (inactive) in the test on HOP-92; > 10 µM (inactive) with HT-29; > 10 µM (inactive) with KM12. For the same compound, the GI50 in the test on LOX IMVI, in the test on MDA-N, with NCI-H23, in the test on NCI-H460, in the test on NCI-H522 and with OVCAR-8 was > 10 µM (inactive) throughout. Besides, the GI50 with SK-MEL-28, in the test with SK-OV-3, in the test on SN12C, with SR, in the test with SW-620 and in the test with T47D was > 10 µM (inactive) throughout. In addition, in the test with U-251, the GI50 was > 10 µM (inactive).
